Where two headings read alike, the source gives them in different places.
Columns and labels:
[1] = target: T1, human 5-HT1A receptor (Homo sapiens (Human), UniProt P08908); experiment: Test 1: agonistic activity for human 5-HT1A receptor (aequorin/Gα16 luminescence in CHO-K1 cell); assay type: cell-based; settings: for Emax: CHO-K1; for EC50: CHO-K1 cell, aequorin luminescence
Procedure: (§1) Test 1: Evaluation of Agonistic Activity for Human 5-HT1A Receptor and Human D4 Receptor
(§2) Aequorin, Gα16 proteins, and each receptor were transiently expressed in CHO-K1 cell (Chinese hamster ovary), and seeded to 384-well plate. The plate was incubated in a CO2 incubator at 37° C. for 24 hours. Each example compound dissolved in DMSO was added thereto, and the change of luminescence amount was measured with Hamamatsu FDSS/μCELL System (Hamamatsu Photonics).

[2] = target: T2, human D4 receptor (Homo sapiens (Human), UniProt P21917); experiment: Test 1: agonistic activity for human D4 receptor (aequorin/Gα16 luminescence in CHO-K1 cell); assay type: cell-based; settings: for D4 agonistic activity Emax / Emax: 100% = 10 μmol/L endogenous ligand; for Emax: CHO-K1; for EC50: CHO-K1 cell, aequorin luminescence
T2 sequence (P21917 whole entry): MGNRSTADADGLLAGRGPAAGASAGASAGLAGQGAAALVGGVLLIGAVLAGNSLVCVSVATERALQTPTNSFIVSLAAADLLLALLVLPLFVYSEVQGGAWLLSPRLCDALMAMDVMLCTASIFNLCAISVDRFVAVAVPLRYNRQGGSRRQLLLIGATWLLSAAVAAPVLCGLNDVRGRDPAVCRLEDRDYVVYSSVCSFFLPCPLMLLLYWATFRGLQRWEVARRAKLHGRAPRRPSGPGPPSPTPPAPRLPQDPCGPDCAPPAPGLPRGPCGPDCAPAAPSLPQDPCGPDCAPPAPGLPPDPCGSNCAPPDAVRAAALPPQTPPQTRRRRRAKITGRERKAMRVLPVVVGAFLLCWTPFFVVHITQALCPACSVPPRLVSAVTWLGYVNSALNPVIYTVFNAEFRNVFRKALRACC
Procedure: as §1, §2

[3] = target: T3, hERG channel (Homo sapiens (Human), UniProt Q12809); experiment: Test 5-1: activity for inhibiting hERG channel (whole-cell patch clamp, hERG-CHO cell, Qpatch); assay type: cell-based; settings: read-out: hERG inhibition IC50
T3 sequence (Q12809 whole entry): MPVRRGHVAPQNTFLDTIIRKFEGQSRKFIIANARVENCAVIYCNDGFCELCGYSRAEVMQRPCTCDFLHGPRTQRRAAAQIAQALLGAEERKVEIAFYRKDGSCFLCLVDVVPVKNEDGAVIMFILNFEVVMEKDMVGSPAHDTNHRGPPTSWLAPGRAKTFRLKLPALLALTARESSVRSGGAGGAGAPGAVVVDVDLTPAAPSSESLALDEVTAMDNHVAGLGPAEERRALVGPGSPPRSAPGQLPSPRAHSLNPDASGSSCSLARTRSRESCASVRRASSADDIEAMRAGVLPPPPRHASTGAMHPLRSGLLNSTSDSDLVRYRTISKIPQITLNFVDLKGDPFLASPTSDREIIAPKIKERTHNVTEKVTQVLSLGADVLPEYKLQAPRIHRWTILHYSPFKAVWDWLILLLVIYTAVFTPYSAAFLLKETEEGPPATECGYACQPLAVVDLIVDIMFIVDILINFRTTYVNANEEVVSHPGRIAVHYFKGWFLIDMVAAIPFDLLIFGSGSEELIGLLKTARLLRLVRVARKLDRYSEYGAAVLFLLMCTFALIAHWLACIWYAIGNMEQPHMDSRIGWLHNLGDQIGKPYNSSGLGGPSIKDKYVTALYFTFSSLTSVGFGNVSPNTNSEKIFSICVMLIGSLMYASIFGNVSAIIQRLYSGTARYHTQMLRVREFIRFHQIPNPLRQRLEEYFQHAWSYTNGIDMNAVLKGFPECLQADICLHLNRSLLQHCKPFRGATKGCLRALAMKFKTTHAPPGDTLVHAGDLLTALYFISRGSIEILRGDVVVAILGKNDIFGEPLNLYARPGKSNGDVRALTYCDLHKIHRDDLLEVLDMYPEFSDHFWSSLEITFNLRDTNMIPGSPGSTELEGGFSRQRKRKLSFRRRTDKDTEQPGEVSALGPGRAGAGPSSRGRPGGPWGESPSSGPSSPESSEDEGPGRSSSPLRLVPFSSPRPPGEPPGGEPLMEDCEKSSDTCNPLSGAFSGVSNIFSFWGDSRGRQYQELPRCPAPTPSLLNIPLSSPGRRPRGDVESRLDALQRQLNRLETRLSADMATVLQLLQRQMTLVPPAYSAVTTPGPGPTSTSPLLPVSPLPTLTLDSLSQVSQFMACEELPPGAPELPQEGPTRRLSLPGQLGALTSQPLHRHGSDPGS
Procedure: Test 5-1: Evaluation of Activity for Inhibiting hERG Channel
(§3) The activity of the present compound for inhibiting hERG channel was measured by whole-cell patch clamp method with auto patch clamp system, using CHO cell wherein hERG channel involved in human rapidly activating delayed rectifier potassium current (IKr) was forcibly expressed.
(§4) hERG-CHO cell purchased from ChanTest was incubated at 37° C. in a CO2 incubator, and the cell was exfoliated from the flask with trypsin to prepare a cell suspension, shortly before the hERG current measurement.
(§5) Extracellular fluid: 2 mmol/L CaCl2, 1 mmol/L MgCl2, 10 mmol/L HEPES, 4 mmol/L KCl, 145 mmol/L NaCl, 10 mmol/L glucose
Intracellular fluid: 5.4 mmol/L CaCl2, 1.8 mmol/L MgCl2, 10 mmol/L HEPES, 31 mmol/L KOH, 10 mmol/L EGTA, 120 mmol/L KCl, 4 mmol/L Na2-ATP
Test compound solution: The test compound was dissolved in DMSO by adjusting the concentration to 2 mmol/L or 20 mmol/L to prepare each test compound solution. […] (Measurement of Current Value and Data Analysis)
The cell suspension, the extracellular fluid, the intracellular fluid, and the measurement plate were set in an auto patch clamp system, and the hERG current was measured by whole-cell patch clamp method. […] Each pulse interval was 15 seconds. The data analysis was carried out with Qpatch Assay Software (Biolin Scientific). The test was carried out applying increscently 4 concentrations of each test compound, and the average of the peak tail currents that were obtained by the last 3 stimulations in each applied concentration was determined to be the evaluated data. By using the current inhibition rate for the pre-applied current at each concentration of each test compound, IC50 value was calculated by Hill equation with the software.

[4] = Test 3-1: metabolic stability test of human liver microsome (0.1 mg/mL); assay type: in vitro ADME; settings: test compound 0.1 μmol/L, 37° C., 30 minutes
Procedure: Test 3-1: Metabolic Stability Test of Human Liver Microsome
The stability of the present compounds for human liver microsome metabolism was evaluated as mentioned below. The used human liver microsome was obtained from Xenontech. Human liver microsome, NADPH, and each test compound were mixed in 25 mmol/L phosphate buffer solution (pH 7.4) to adjust each concentration as shown below, and the mixture was incubated at 37° C. for 30 minutes. • human liver microsome: 0.1 mg/mL • NAPDH: 3.2 mmol/L • test compound: 0.1 μmol/L
The residual ratio of the test compound in each sample after the incubation for 30 minutes was measured with a LC-MS, and the metabolic stability of human liver microsome was calculated about each test compound with the following formula. Metabolic stability of human liver microsome (mL/min/mg protein)=−LN (residual ratio)/“reaction time”/“concentration of human liver microsome”

[5] = target: T1, human 5-HT1A receptor; experiment: Test 2: binding activity to human 5-HT1A receptor ([3H] 8-OH-DPAT, CHO cell membrane)
Procedure: (§6) Test 2: Evaluation of Binding Activity to Human 5-HT1A Receptor, Human D4 Receptor, and Human D2 Receptor
(§7) CHO cell membrane fraction in which human 5-HT1A receptor, human D4 receptor, and human D2 receptor were expressed was purchased from PerkinElmer Co., Ltd. In the evaluation test of binding, the test compound dissolved in DMSO, each receptor membrane preparation diluted with buffer solution, and [3H] […] The nonspecific binding to each receptor was evaluated by a competition binding experiment in the presence of 10 μmol/L 8-OH-DPAT, 10 μmol/L dopamine, or 10 μmol/L spiperone, respectively.

[6] = target: T2, human D4 receptor; experiment: Test 2: binding activity to human D4 receptor ([3H] dopamine, CHO cell membrane)
Procedure: as §6, §7

[7] = target: T3, hERG channel; experiment: Test 5-2: activity for inhibiting hERG channel (whole-cell patch clamp, hERG-CHO cell, Qube); assay type: cell-based; settings: read-out: hERG inhibition IC50
Procedure: Test 5-2: Evaluation of Activity for Inhibiting hERG Channel
as §3, §4, §5
Intracellular fluid: 10 mmol/L HEPES, 10 mmol/L EGTA, 20 mmol/L KCl, 130 mmol/L KF
Test compound solution: The compound was dissolved in DMSO by adjusting the concentration to 2 mmol/L or 20 mmol/L to prepare each test compound solution. […] (Measurement of Current Value and Data Analysis)
The cell suspension, the extracellular fluid, the intracellular fluid, and the measurement plate were set in an auto patch clamp system, and the hERG current was measured by whole-cell patch clamp method. The voltage-protocol was as follows: the holding potential was adjusted to −80 mV, the depolarizing pulse was added at −50 mV to +20 mV for 5 seconds, the repolarizing pulse was added at −50 mV for 5 seconds, then the potential was returned to the holding potential. Each pulse interval was 15 seconds. The data analysis was carried out with Qube Assay Software (Sophion Scientific). The test was carried out applying increscently 4 concentrations of each test compound, and the average of the peak tail currents that were obtained by the last 3 stimulations in each applied concentration was made to be the evaluated data. By using the current inhibition rate for the pre-applied current at each concentration of each test compound, IC50 value was calculated by Hill equation with the software.

[8] = target: human D2 receptor (Homo sapiens (Human), UniProt P14416); experiment: Test 2: binding activity to human D2 receptor ([3H] spiperone, CHO cell membrane)
human D2 receptor, sequence (P14416 whole entry): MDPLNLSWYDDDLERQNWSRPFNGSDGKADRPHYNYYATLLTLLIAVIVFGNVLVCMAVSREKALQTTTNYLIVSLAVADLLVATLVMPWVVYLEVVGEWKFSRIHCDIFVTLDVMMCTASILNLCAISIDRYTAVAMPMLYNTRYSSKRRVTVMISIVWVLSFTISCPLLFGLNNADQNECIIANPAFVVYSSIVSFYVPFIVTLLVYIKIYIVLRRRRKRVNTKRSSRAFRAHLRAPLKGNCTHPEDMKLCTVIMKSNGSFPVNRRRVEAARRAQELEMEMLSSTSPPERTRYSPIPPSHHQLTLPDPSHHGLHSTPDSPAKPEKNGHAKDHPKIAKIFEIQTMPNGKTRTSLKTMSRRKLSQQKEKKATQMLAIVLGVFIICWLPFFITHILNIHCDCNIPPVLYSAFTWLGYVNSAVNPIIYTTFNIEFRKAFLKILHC
Procedure: as §6, §7

[9] = 100% = 10 μmol/L endogenous ligand
[10] = [3H] 8-OH-DPAT, read-out: 5-HT1A binding affinity (Ki value)
[11] = [3H] spiperone, read-out: D2 binding affinity (Ki value)
[12] = [3H] dopamine, read-out: D4 binding affinity (Ki value)

T1 sequence (P08908 whole entry): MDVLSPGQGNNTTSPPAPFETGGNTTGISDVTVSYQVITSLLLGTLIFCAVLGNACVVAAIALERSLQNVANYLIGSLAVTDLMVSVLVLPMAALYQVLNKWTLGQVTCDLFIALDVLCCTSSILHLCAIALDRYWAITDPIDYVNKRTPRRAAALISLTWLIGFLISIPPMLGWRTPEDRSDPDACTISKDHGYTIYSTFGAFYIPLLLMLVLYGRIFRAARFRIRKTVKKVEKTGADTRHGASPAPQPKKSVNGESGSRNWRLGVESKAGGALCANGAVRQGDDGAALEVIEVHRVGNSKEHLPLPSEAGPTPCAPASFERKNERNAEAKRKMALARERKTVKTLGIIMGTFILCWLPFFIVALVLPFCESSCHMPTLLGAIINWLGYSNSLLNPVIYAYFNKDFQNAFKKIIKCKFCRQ

SMILES	5-HT1A agonistic activity Emax [1, 9] [%]	D4 agonistic activity Emax [2] [%]	IC50 [3] [nM]	Metabolic stability of human liver microsome [4] [mL/min/mg protein]	Ki [5, 10] [nM]	Emax [1, 9] [%]	EC50 [1] [nM]	Ki [6] [nM]	IC50 [7] [nM]	Emax [2] [%]	EC50 [2] [nM]	Ki [8, 11] [nM]	Ki [5] [nM]	Ki [8] [nM]	Ki [6, 12] [nM]
Cc1cccc(C2CCN(CCNC(=O)C(C)(C)C)CC2)n1 [Example 10]	90	85	> 10000	0.015											
O=C(NCCN1CC=C(c2cccc(C(F)(F)F)n2)CC1)C1CCC(F)(F)CC1 [Example 12, 4,4-Difluoro-N-{2-[6-(trifluoromethyl)-3′,6′-dihydro[2,4′-bipyridin]-1′ (2′H)-yl]ethyl}-cyclohexane-1-carboxamide]				0.115	0.2	43	< 10	4.5	3500	52	35	357			
CC(C)(C)C(=O)NCCN1CC=C(c2cccc(C(F)(F)F)n2)CC1 [Example 31, 2,2-Dimethyl-N-{2-[6-(trifluoromethyl)-3′,6′-dihydro[2,4′-bipyridin]-1′ (2′H)-yl]ethyl}propanamide]				<0.05	0.3	40	35	2.9	> 10000	52	< 10	1280			
Cc1cccc(C2=CCN(CCNC(=O)C3CCOCC3)CC2)n1 [Example 29, N-[2-(6-Methyl-3′,6′-dihydro[2,4′-bipyridin]-1′(2′H)-yl)ethyl]-tetrahydro-2H-pyran-4-carboxamide]				<0.05	0.4	50	< 10	22	> 10000	74	24	> 10000			
Cc1cccc(C2=CCN(CCNC(=O)C3CCCCO3)CC2)n1 (stereo not drawn) [Example 20]				<0.05		40	57	92	> 10000	60	15		6.8	> 10000	
COc1cccc(C2CCN(CCNC(=O)C3CCOCC3)CC2)n1 [Example 33]				<0.05	21	83	22		> 10000	62	13	> 10000			119
Cc1cccc(C2CCN(CCNC(=O)C3CC4CCC3O4)CC2)n1 (stereo not drawn) [Example 3]		76	32100	<0.01	7.1		38				33.5	> 10000			198
